Where two headings read alike, the source gives them in different places.
Columns and labels:
[1] = in vitro; format: in vitro ADME; conditions: for Papp: not told, read-out: Permeability according to examples
Description: A DOPC lipid dissolved in chloroform and commercially available was collected in a glass vial, and chloroform was removed by blowing nitrogen.
The lipid film was left in the glass vial, to which the organic phase (1:1 (v/v) mixture of squalane and silicone oil (AR20)) was added, and then sonication was performed for 10-15 minutes to uniformly disperse the lipid in the oil.
Finally, an oil solution in which the lipid was dissolved (DOPC concentration: 4 mg/ml) was obtained.
Then, distilled water was added to a UV cuvette and the prepared lipid solution was added thereon.
At this time, the process of producing the lipid bilayer was performed by adding a small amount of fluorescently labeled lipid and observing it through a fluorescence microscope.
At this time, a magnetic stirring bar is placed under the UV cuvette and the lower water layer is continuously stirred during the measurement. This makes it unnecessary to consider the time when the drug passes through the lipid bilayer and diffuses to the area irradiated with UV.
The R2 value was calculated in order to determine how well the concentration and absorbance correlate at each wavelength, and the wavelength at which this value exceeds 0.99 was irradiated in the experiment.
More specifically, in FIG. 3, CA(t) means the concentration of an acceptor solution over time (where the first aqueous phase is located under the cuvette, where the drug reaches through the first lipid bilayer) and Ceq means the equilibrium concentration of the acceptor solution droplet (serving as a donor solution to provide a drug), and the acceptor solution, and is calculated by the following General Formula 1. Ceq=CD(0)VD/(VD+VA) [General Formula 1]
In General Formula 1, VA and VD are respectively the volume of a first aqueous phase (acceptor) and the volume of a second aqueous phase (donor, droplet), and CD(0) represents the drug concentration of the initial aqueous solution droplet.

[2] = in vitro; conditions: PAMPA
Description: Subsequently, the drug concentration of the portion corresponding to the cell membrane inside (acceptor) is obtained by HPLC or UV spectroscopy, from which the membrane permeability of the corresponding drugs is calculated.

[3] = DOPC lipid bilayer, organic phase 1:1 (v/v) squalane and silicone oil (AR20), 1 μl donor droplet, real-time UV absorbance of stirred acceptor water layer

## CC(=O)Nc1ccc(O)cc1 [Acetaminophen]
[1]; [3]
  Papp: 113 ×10⁻⁶ cm/s
[2]
  Papp: 3.5 ×10⁻⁶ cm/s

## Cc1cc(=O)n(-c2ccccc2)n1C [Antipyrine]
[1]
  Papp: 200 ×10⁻⁶ cm/s

## Cn1c(=O)c2c(ncn2C)n(C)c1=O [Caffeine]
[1]; [3]
  Papp: 248 ×10⁻⁶ cm/s

## CN/C(=N/CCSCc1nc[nH]c1C)NC#N [Cimetidine]
[1]; DOPC lipid bilayer, method of the example
  Permeability to the lipid bilayer (in words): very low permeability
[1]; [3]
  Papp: 7.2 ×10⁻⁶ cm/s
